Structures are written as SMILES.

Sequence of Mitogen-activated protein kinase 10 (P53779 whole entry): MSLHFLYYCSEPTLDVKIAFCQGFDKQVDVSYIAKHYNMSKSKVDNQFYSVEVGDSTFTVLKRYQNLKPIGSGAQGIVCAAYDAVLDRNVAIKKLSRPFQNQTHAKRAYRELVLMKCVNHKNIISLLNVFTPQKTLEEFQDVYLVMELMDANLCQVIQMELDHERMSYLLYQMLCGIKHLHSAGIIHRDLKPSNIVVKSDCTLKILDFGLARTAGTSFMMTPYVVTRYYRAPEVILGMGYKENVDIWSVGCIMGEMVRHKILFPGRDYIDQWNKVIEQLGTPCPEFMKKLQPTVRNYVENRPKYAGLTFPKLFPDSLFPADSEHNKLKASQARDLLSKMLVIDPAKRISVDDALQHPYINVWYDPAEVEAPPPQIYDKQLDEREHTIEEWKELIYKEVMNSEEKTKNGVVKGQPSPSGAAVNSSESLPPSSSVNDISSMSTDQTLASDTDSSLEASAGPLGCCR

The target of the first assay is T1, Mitogen-activated protein kinase 14 (Homo sapiens, UniProt Q16539). As to the kind of experiment: Inhibition of p38alpha-mediated ATF2 phosphorylation in presence of ATP.
T1 sequence (Q16539 whole entry): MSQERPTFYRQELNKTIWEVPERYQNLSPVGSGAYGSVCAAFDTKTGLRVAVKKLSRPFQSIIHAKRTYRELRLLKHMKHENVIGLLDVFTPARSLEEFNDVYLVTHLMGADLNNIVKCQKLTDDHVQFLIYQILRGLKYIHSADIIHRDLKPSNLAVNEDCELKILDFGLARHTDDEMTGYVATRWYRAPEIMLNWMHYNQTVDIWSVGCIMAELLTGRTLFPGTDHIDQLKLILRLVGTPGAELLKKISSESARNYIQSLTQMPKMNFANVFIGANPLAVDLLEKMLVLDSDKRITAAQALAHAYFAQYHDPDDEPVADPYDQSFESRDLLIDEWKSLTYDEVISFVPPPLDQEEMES
With `Cc1cc2nc(-c3ccc(F)cc3)c(-c3ccnc(NC(C)C)c3)nc2cc1C`, the IC50 stood at 238 nM.

With `CC(C)C(C)Nc1cc(-c2nc3cc(Cl)c(Cl)cc3nc2-c2ccc(F)cc2)ccn1` (stereo not given), the IC50 was 9460 nM.

As for `Cc1cc2nc(-c3ccc(F)cc3)c(-c3ccnc(NCc4ccccc4)c3)nc2cc1C`, the IC50 is 1530 nM.

Turning to `CC(C)Nc1cc(-c2nc3cccnc3nc2-c2ccc(F)cc2)ccn1`, the IC50 was found to be 38 nM.

With `Fc1ccc(-c2nc3ccccc3nc2-c2ccncc2)cc1`, the IC50 was determined as 3150 nM.

Take `CC(C)[C@H](C)Nc1cc(-c2nc3ccccc3nc2-c2ccc(F)cc2)ccn1`: the IC50 is 576 nM.

As for `CC(Nc1cc(-c2nc3ccccc3nc2-c2ccc(F)cc2)ccn1)c1ccccc1` (stereo not given), the IC50 turned out to be 720 nM.

Consider `O[C@H]1CC[C@H](Nc2cc(-c3nc4cc(Cl)c(Cl)cc4nc3-c3ccc(F)cc3)ccn2)CC1`, for which the IC50 stood at 608 nM.

In the case of `Cc1cc2nc(-c3ccc(F)cc3)c(-c3ccnc(N[C@H]4CC[C@H](O)CC4)c3)nc2cc1C`, the half-maximal inhibitory concentration (IC50) came to 259 nM.

As to `Cc1cc2nc(-c3ccncc3)c(-c3ccc(F)cc3)nc2cc1C`, the IC50 turned out to be 3700 nM.

Regarding `CC(C)CNc1cc(-c2nc3ccccc3nc2-c2ccc(F)cc2)ccn1`, the half-inhibitory concentration (IC50) was 642 nM.

With `Cc1cc2nc(-c3ccc(F)cc3)c(-c3ccnc(NC(C)C(C)C)c3)nc2cc1C` (stereo not given), the IC50 was 1380 nM.

For the molecule `CCC(C)Nc1cc(-c2nc3ccccc3nc2-c2ccc(F)cc2)ccn1` (stereo not given), the IC50 was 114 nM.

On to `C[C@@H](Nc1cc(-c2nc3ccccc3nc2-c2ccc(F)cc2)ccn1)c1ccccc1`, for which the IC50 came to 4790 nM.

In the case of `Fc1ccc(-c2nc3ncccc3nc2-c2ccncc2)cc1`, the IC50 was determined as 3190 nM.

Consider `CC(C)Nc1cc(-c2nc3ccccc3nc2-c2ccc(F)cc2)ccn1`, for which the IC50 amounted to 81 nM.

On to `COc1ccc2nc(-c3ccncc3)c(-c3ccc(F)cc3)nc2c1`, for which the IC50 was 6140 nM.

For the molecule `CC(C)C(C)Nc1cc(-c2nc3ccccc3nc2-c2ccc(F)cc2)ccn1` (stereo not given), the concentration for half-maximal inhibition (IC50) worked out at 790 nM.

For the molecule `O[C@H]1CC[C@H](Nc2cc(-c3nc4ccccc4nc3-c3ccc(F)cc3)ccn2)CC1`, the 50% inhibitory concentration (IC50) worked out at 211 nM.

Take `CC(C)Nc1cc(-c2nc3ncccc3nc2-c2ccc(F)cc2)ccn1`: the IC50 came out at 333 nM.

`CC(C)[C@@H](C)Nc1cc(-c2nc3ccccc3nc2-c2ccc(F)cc2)ccn1`: the IC50 stood at 1590 nM.

Turning to `CCC(C)Nc1cc(-c2nc3cc(C)c(C)cc3nc2-c2ccc(F)cc2)ccn1` (stereo not given), the IC50 stood at 595 nM.

As for `C[C@H](Nc1cc(-c2nc3ccccc3nc2-c2ccc(F)cc2)ccn1)c1ccccc1`, the IC50 was 431 nM.

For the molecule `CC(C)Nc1cc(-c2nc3cc(Cl)c(Cl)cc3nc2-c2ccc(F)cc2)ccn1`, the IC50 stood at 412 nM.

A further assay addresses Mitogen-activated protein kinase 10 (Homo sapiens, UniProt P53779). As to the kind of experiment: Inhibition of JNK3 by nonradioactive JNK3 assay.
On to `CC(C)Nc1cc(-c2nc3ccccc3nc2-c2ccc(F)cc2)ccn1`, for which the IC50 was 3.95 µM.

In another assay the target is T1, Mitogen-activated protein kinase 14. As to the kind of experiment: Inhibition of p38alpha-mediated ATF2 phosphorylation at 10 uM in presence of ATP.
Take `COc1ccc2nc(-c3ccc(F)cc3)c(-c3ccncc3)nc2c1`: the inhibition was found to be 33%.

In the case of `Fc1ccc(-c2nc3cc(Cl)c(Cl)cc3nc2-c2ccncc2)cc1`, the inhibition turned out to be 39%.

Turning to `Fc1ccc(-c2nc3cc(Cl)c(Cl)cc3nc2-c2ccnc(NCc3ccccc3)c2)cc1`, the inhibition is 37%.

As for `Fc1ccc(-c2nc3cccnc3nc2-c2ccncc2)cc1`, the inhibition worked out at 46%.

With `Fc1ccc(-c2nc3ccccc3nc2-c2ccnc(NCc3ccccc3)c2)cc1`, the inhibition worked out at 9%.

Broadly, the IC50 is the midpoint of a concentration-inhibition curve. A word on the inhibition: it is the percentage by which the read-out fell short of the control.

The values are drawn from ChEMBL document CHEMBL1156828, “Pyridinylquinoxalines and pyridinylpyridopyrazines as lead compounds for novel p38 alpha mitogen-activated protein kinase inhibitors” (J Med Chem, 2010).
